Experimental data reported in ChEMBL document CHEMBL4387741, “Optimization of novel reversible Bruton's tyrosine kinase inhibitors identified using Tethering-fragment-based screens” (Bioorg Med Chem, 2019).

Assays:
[1] = molecular target: Myosin light chain kinase (Homo sapiens) (UniProt Q32MK0); assay: Inhibition of wild-type human partial length MLCK (D488 to K800 residues) expressed in bacterial expression system at 1 uM by Kinomescan method relative to control
[2] = molecular target: MAP kinase-interacting serine/threonine-protein kinase 2 (Homo sapiens) (UniProt Q9HBH9); assay: Inhibition of wild-type human partial length MKNK2 (G63 to S388 residues) expressed in mammalian expression system at 1 uM by Kinomescan method relative to control
[3] = test system: Phosphatidylinositol 4,5-bisphosphate 3-kinase catalytic subunit alpha isoform (Homo sapiens), P42336 [I800L]; assay: Inhibition of human partial length PIK3CA I800L mutant (R108 to N1068 residues) expressed in mammalian expression system at 1 uM by Kinomescan method relative to control
[4] = test system: Mast/stem cell growth factor receptor Kit (Homo sapiens), P10721 [A829P]; assay: Inhibition of human partial length KIT A829P mutant (I571 to D952 residues) expressed in mammalian expression system at 1 uM by Kinomescan method relative to control
[5] = molecular target: Cyclin-dependent kinase 2 (Homo sapiens) (UniProt P24941); assay: Inhibition of wild-type human full length CDK2 (M1 to L298 residues) expressed in bacterial expression system at 1 uM by Kinomescan method relative to control
[6] = molecular target: Mitogen-activated protein kinase kinase kinase kinase 3 (Homo sapiens) (UniProt Q8IVH8); assay: Inhibition of wild-type human partial length MAP4K3 (M1 to D301 residues) expressed in bacterial expression system at 1 uM by Kinomescan method relative to control
[7] = molecular target: Mitogen-activated protein kinase kinase kinase 4 (Homo sapiens) (UniProt Q9Y6R4); assay: Inhibition of wild-type human partial length MAP3K4 (G1319 to E1608 residues) expressed in bacterial expression system at 1 uM by Kinomescan method relative to control
[8] = molecular target: Phosphatidylinositol 4,5-bisphosphate 3-kinase catalytic subunit gamma isoform (Homo sapiens) (UniProt P48736); assay: Inhibition of wild-type human partial length PIK3CG (S144 to A1102 residues) expressed in mammalian expression system at 1 uM by Kinomescan method relative to control
[9] = molecular target: Fibroblast growth factor receptor 2 (Homo sapiens) (UniProt P21802); assay: Inhibition of wild-type human partial length FGFR2 (D457 to E769 residues) expressed in bacterial expression system at 1 uM by Kinomescan method relative to control
[10] = molecular target: Cyclin-dependent kinase 11B (Homo sapiens) (UniProt P21127); assay: Inhibition of wild-type human partial length CDC2L1 (P353 to G692 residues) expressed in bacterial expression system at 1 uM by Kinomescan method relative to control
[11] = test system: Epidermal growth factor receptor (Homo sapiens), P00533 [L858R]; assay: Inhibition of human partial length EGFR L858R mutant (R669 to V1011 residues) expressed in bacterial expression system at 1 uM by Kinomescan method relative to control
[12] = molecular target: Macrophage-stimulating protein receptor (Homo sapiens) (UniProt Q04912); assay: Inhibition of wild-type human partial length MST1R (I1057 to L1363 residues) expressed in bacterial expression system at 1 uM by Kinomescan method relative to control
[13] = molecular target: Dual specificity tyrosine-phosphorylation-regulated kinase 1B (Homo sapiens) (UniProt Q9Y463); assay: Inhibition of wild-type human full length DYRK1B (M1 to S629 residues) expressed in bacterial expression system at 1 uM by Kinomescan method relative to control
[14] = molecular target: Cyclin-dependent kinase-like 2 (Homo sapiens) (UniProt Q92772); assay: Inhibition of wild-type human partial length CDKL2 (M1 to D327 residues) expressed in bacterial expression system at 1 uM by Kinomescan method relative to control
[15] = molecular target: Serine/threonine-protein kinase tousled-like 2 (Homo sapiens) (UniProt Q86UE8); assay: Inhibition of wild-type human partial length TLK2 (E424 to N749 residues) expressed in bacterial expression system at 1 uM by Kinomescan method relative to control
[16] = molecular target: Homeodomain-interacting protein kinase 2 (Homo sapiens) (UniProt Q9H2X6); assay: Inhibition of wild-type human partial length HIPK2 (M153 to S564 residues) expressed in mammalian expression system at 1 uM by Kinomescan method relative to control
[17] = molecular target: Activin receptor type-2B (Homo sapiens) (UniProt Q13705); assay: Inhibition of wild-type human ACVR2B (H169 to D504 residues) expressed in bacterial expression system at 1 uM by Kinomescan method relative to control
[18] = molecular target: Cyclin-dependent kinase 16 (Homo sapiens) (UniProt Q00536); assay: Inhibition of wild-type human partial length PCTK1 (G160 to A474 residues) expressed in mammalian expression system at 10 uM by Kinomescan method relative to control
[19] = molecular target: Serine/threonine-protein kinase haspin (Homo sapiens) (UniProt Q8TF76); assay: Inhibition of wild-type human partial length HASPIN (I452 to K798 residues) expressed in mammalian expression system at 10 uM by Kinomescan method relative to control
[20] = molecular target: Cyclin-dependent kinase 11A (Homo sapiens) (UniProt Q9UQ88); assay: Inhibition of wild-type human partial length CDC2L2 (D391 to K730 residues) expressed in bacterial expression system at 10 uM by Kinomescan method relative to control
[21] = molecular target: Cyclin-dependent kinase 13 (Homo sapiens) (UniProt Q14004); assay: Inhibition of wild-type human partial length CDC2L5 (H675 to S1054 residues) expressed in mammalian expression system at 10 uM by Kinomescan method relative to control
[22] = molecular target: cAMP-dependent protein kinase catalytic subunit beta (Homo sapiens) (UniProt P22694); assay: Inhibition of wild-type human full length PKAC-beta (M1 to F351 residues) expressed in bacterial expression system at 10 uM by Kinomescan method relative to control
[23] = molecular target: Ephrin type-A receptor 7 (Homo sapiens) (UniProt Q15375); assay: Inhibition of wild-type human partial length EPHA7 (Y608 to S912 residues) expressed in bacterial expression system at 10 uM by Kinomescan method relative to control
[24] = molecular target: Insulin-like growth factor 1 receptor (Homo sapiens) (UniProt P08069); assay: Inhibition of wild-type human partial length IGF1R (L972 to D1294 residues) expressed in bacterial expression system at 10 uM by Kinomescan method relative to control
[25] = molecular target: Serine/threonine-protein kinase PAK 3 (Homo sapiens) (UniProt O75914); assay: Inhibition of wild-type human full length PAK3 (M1 to R544 residues) expressed in bacterial expression system at 10 uM by Kinomescan method relative to control
[26] = molecular target: Insulin receptor (Homo sapiens) (UniProt P06213); assay: Inhibition of wild-type human partial length INSR (P997 to E1318 residues) expressed in mammalian expression system at 10 uM by Kinomescan method relative to control
[27] = molecular target: Proto-oncogene tyrosine-protein kinase ROS (Homo sapiens) (UniProt P08922); assay: Inhibition of wild-type human partial length ROS1 (A1921 to N2240 residues) expressed in bacterial expression system at 10 uM by Kinomescan method relative to control
Proto-oncogene tyrosine-protein kinase ROS (Homo sapiens), sequence (P08922 whole entry, the tested form may be a part): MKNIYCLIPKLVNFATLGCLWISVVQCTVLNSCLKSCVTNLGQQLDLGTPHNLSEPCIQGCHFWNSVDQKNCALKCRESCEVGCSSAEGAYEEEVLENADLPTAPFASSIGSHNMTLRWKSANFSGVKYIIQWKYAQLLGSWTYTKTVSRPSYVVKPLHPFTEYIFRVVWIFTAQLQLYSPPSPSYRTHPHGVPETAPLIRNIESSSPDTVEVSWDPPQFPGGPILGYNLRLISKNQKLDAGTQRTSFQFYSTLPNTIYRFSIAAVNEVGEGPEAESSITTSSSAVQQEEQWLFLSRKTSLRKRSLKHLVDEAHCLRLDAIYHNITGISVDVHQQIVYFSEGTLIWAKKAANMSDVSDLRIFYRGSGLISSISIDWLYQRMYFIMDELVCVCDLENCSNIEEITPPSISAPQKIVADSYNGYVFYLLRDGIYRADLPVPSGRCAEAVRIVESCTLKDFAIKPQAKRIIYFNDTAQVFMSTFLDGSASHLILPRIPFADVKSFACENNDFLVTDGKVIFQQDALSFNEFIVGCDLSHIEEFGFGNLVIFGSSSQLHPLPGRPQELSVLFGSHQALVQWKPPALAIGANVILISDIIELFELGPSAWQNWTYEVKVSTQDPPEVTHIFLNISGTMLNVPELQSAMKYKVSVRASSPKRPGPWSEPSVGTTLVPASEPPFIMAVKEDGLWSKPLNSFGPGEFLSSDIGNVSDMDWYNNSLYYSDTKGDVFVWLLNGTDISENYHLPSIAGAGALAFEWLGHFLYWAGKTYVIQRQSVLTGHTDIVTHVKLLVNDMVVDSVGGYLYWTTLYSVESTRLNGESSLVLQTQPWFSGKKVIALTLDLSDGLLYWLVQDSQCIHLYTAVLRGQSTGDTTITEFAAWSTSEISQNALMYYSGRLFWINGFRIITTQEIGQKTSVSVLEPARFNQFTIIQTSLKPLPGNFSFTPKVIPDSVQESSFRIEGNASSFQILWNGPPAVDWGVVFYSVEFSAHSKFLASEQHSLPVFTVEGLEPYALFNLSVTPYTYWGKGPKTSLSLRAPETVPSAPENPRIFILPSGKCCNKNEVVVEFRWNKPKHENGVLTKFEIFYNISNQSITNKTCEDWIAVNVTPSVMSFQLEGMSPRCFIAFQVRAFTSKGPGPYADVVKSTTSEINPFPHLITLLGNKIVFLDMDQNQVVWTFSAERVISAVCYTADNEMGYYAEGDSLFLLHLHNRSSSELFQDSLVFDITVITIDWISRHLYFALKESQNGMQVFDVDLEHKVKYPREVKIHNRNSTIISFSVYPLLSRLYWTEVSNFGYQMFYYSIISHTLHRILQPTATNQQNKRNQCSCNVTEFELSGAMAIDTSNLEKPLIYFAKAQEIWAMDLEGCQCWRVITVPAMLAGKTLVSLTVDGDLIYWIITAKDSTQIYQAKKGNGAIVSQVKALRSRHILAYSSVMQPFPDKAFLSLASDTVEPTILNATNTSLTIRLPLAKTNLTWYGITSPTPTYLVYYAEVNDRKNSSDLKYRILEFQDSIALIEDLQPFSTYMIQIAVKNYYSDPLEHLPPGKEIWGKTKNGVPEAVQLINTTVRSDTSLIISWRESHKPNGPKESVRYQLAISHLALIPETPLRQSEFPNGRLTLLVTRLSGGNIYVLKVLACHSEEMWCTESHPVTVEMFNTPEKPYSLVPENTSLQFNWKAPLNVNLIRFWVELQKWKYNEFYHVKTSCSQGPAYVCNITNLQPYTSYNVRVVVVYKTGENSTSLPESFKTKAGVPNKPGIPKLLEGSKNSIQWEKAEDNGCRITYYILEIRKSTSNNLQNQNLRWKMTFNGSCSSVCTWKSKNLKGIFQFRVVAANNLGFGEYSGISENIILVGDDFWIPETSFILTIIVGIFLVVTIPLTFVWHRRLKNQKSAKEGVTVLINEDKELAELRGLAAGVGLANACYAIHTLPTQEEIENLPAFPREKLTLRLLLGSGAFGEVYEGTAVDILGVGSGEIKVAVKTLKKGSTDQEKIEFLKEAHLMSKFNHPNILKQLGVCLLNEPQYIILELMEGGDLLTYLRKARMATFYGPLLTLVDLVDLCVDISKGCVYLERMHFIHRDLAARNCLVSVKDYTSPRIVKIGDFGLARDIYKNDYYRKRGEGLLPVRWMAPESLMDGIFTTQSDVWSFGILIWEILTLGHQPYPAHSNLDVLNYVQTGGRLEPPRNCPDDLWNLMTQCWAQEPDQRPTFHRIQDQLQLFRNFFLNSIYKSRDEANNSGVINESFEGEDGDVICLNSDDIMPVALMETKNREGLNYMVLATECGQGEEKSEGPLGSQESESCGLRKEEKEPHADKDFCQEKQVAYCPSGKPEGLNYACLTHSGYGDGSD

Mitogen-activated protein kinase kinase kinase 4 (Homo sapiens), sequence (Q9Y6R4 whole entry, the tested form may be a part, canonical isoform): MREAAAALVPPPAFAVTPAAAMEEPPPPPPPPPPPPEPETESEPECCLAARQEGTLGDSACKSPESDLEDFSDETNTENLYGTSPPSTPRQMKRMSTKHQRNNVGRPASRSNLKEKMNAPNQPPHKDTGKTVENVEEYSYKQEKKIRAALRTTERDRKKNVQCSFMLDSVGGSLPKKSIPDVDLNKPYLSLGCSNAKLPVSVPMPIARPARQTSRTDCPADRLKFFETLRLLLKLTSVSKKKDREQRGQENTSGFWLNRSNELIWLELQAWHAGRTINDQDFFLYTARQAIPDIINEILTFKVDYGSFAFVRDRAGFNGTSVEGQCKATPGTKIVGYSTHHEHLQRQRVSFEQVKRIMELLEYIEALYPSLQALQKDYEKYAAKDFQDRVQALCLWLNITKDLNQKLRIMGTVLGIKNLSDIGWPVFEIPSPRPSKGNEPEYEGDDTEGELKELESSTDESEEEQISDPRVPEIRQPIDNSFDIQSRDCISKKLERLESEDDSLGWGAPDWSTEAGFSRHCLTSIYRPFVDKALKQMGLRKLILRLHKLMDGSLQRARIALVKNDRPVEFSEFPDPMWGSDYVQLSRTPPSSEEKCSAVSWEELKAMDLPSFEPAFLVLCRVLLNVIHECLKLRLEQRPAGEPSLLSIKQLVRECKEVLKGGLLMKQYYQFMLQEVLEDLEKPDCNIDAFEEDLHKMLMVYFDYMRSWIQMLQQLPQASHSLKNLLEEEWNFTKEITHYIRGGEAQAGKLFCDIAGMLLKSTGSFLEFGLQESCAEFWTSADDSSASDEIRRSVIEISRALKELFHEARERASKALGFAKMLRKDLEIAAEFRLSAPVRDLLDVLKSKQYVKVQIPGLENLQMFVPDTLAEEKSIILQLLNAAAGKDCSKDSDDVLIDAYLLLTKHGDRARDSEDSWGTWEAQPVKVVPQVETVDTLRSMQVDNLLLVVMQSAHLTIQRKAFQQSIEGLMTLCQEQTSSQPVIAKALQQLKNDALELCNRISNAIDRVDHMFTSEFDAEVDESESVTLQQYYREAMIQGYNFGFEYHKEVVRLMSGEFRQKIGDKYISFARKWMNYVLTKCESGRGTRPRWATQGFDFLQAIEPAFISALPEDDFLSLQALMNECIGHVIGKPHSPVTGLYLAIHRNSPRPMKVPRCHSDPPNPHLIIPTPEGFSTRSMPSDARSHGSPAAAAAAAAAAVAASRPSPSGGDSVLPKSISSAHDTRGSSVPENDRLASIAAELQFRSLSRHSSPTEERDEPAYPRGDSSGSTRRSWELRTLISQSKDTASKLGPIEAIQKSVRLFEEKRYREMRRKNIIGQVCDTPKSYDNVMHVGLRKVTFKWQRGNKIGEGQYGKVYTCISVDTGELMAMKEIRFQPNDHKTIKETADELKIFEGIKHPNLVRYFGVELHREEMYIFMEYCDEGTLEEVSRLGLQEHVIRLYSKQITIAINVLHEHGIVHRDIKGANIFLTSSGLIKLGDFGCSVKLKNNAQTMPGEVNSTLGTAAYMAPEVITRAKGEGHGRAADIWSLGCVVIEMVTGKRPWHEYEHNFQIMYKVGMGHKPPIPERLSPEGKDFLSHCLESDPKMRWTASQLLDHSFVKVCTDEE
Myosin light chain kinase (Homo sapiens), sequence (Q32MK0 whole entry, the tested form may be a part): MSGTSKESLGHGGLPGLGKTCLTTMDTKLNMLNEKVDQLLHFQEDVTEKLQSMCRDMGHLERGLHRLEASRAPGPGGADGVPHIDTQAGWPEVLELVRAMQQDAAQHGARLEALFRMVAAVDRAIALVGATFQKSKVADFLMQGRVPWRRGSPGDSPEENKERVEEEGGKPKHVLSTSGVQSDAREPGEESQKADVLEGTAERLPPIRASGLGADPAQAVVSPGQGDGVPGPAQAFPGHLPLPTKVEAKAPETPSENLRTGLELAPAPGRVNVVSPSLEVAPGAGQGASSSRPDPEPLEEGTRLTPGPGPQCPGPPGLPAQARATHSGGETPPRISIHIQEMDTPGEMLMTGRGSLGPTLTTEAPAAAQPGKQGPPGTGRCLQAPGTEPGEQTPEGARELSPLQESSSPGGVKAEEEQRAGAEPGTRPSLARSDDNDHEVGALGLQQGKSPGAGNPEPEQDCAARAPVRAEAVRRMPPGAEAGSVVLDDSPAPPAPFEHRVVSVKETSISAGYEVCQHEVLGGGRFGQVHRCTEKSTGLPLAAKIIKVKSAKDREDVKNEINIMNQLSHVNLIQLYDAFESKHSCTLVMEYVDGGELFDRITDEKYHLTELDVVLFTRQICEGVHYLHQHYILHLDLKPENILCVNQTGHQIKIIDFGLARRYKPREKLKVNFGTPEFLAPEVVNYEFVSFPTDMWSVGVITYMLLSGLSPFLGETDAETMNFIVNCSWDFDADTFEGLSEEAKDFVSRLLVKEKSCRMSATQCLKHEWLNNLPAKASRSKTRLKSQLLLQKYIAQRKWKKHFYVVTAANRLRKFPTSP

## O=C(Nc1cccc([C@@H]2CN(c3ncnc4[nH]ccc34)CCN2CCO)c1)Nc1c(F)cccc1N1CCCC1
[1]
  inhibition: 100%
[2]
  inhibition: 64%
[3]
  inhibition: 74%
[4]
  inhibition: 28%
[5]
  inhibition: 99%
[6]
  inhibition: 71%
[7]
  inhibition: 100%
[8]
  inhibition: 84%
[9]
  inhibition: 54%
[10]
  inhibition: 100%
[11]
  inhibition: 99%
[12]
  inhibition: 100%
[13]
  inhibition: 95%
[14]
  inhibition: 100%
[15]
  inhibition: 99%
[16]
  inhibition: 100%
[17]
  inhibition: 100%

## O=C(Nc1cccc([C@H]2CCCN(c3ncnc4[nH]ccc34)C2)c1)Nc1ccccc1N1CCCC1
[18]
  inhibition: 70%
[19]
  inhibition: 63%
[20]
  inhibition: 49%
[21]
  inhibition: 97%
[22]
  inhibition: 100%
[23]
  inhibition: 72%
[24]
  inhibition: 100%
[25]
  inhibition: 4.8%
[26]
  inhibition: 81%
[27]
  inhibition: 72%
